Drawing on US20110028455A1, “Indole-substituted 3-cyanopyridines As Kinase Inhibitors” (Wyeth LLC, priority 2007, published 2011), this text covers IC50 for 27 molecules.

The target of the assay is T1, human PKCθ full length enzyme (Homo sapiens, UniProt Q04759).
T1 construct: human PKCθ full length enzyme (Panvera Cat# P2996); purchased Panvera P2996
The experiment in a line: PKCθ IMAP Assay. It is filed as biochemical. Conditions: PKCθ 1 nM; ATP 6 μM; peptide 100 nM; DMSO 5%; 25 minutes at room temperature; FP readout; read-out: PKC-Theta Mean IC50. The protocol:
The materials used include the following: human PKCθ full length enzyme (Panvera Cat# P2996); substrate peptide: 5FAM-RFARKGSLRQKNV-OH (Molecular Devices, RP7032); ATP (Sigma Cat # A2383); DTT (Pierce, 20291); 5× kinase reaction buffer (Molecular Devices, R7209); 5× binding buffer A (Molecular Devices, R7282), 5× binding buffer B (Molecular Devices, R7209); IMAP Beads (Molecular Devices, R7284); and 384-well plates (Corning Costar, 3710).
The reaction buffer was prepared by diluting the 5× stock reaction buffer and adding DTT to obtain a concentration of 3.0 mM. The binding buffer was prepared by diluting the 5× binding buffer A. A master mix solution was prepared using a 90% dilution of the reaction buffer containing 2×ATP (12 uM) and 2× peptide (200 nm). Compounds were diluted in DMSO to 20× of the maximum concentration for the IC50 measurement. 27 μl of the master mix solution for each IC50 curve was added to the first column in a 384-well plate and 3 μl of 20× compound in DMSO was added to each well.
The final concentration of compound was 2× and 10% DMSO. DMSO was added to the rest of the master mix to increase the concentration to 10%. 10 μl of the master mix containing 10% DMSO was added to the rest of the wells on the plate except the 2nd column. 20 μl was transferred from the first column to the 2nd column. The compounds were serially diluted in 2:1 ratio starting from the 2nd column. A 2×(2 nM) PKCθ solution was made in the reaction buffer. 10 μl of the PKCθ solution was added to every well to achieve these final concentrations: PKCθ-1 nM; ATP-6 μM; peptide-100 nM; DMSO-5%. Samples were incubated for 25 minutes at room temperature. The binding reagent was prepared by diluting the beads in 1× binding buffer to 800:1. 50 μl of the binding reagent was added to every well and incubated for 20 minutes. FP was measured using Envision2100 (PerkinElmer Life Sciences). Wells with no ATP and wells with no enzyme were used as controls.

T1 sequence (Q04759 whole entry): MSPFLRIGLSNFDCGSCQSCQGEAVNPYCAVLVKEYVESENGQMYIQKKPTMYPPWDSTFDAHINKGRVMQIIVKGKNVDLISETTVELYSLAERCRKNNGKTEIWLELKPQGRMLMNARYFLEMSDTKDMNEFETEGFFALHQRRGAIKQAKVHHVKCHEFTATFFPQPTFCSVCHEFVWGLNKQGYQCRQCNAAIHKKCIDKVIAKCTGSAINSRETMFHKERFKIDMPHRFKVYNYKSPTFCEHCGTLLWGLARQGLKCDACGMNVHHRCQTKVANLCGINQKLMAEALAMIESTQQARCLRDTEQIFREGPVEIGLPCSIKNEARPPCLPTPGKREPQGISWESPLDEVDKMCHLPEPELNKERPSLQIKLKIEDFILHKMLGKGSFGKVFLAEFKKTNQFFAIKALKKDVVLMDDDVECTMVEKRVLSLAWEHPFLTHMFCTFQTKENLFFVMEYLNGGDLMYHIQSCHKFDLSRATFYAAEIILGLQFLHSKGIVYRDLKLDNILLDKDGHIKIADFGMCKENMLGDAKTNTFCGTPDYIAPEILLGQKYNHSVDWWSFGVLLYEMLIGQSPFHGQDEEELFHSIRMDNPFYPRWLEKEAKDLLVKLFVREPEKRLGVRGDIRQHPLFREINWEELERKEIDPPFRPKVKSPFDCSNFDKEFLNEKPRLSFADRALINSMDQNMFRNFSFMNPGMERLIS

As usually defined, the IC50 is the midpoint of a concentration-inhibition curve. With `Cc1ncc(C#N)c(Nc2ccc3[nH]ccc3c2C)c1-c1ccc(OCCNCCO)cc1` [Example 17, 5-(4-{2-[(2-hydroxyethyl)amino]ethoxy}phenyl)-6-methyl-4-[(4-methyl-1H-indol-5-yl)amino]nicotinonitrile], the IC50 was 19 nM.
Take `Cc1ncc(C#N)c(Nc2ccc3[nH]ccc3c2C)c1-c1ccc(OCCNCCCO)cc1` [Example 18, 5-(4-{2-[(3-hydroxypropyl)amino]ethoxy}phenyl)-6-methyl-4-[(4-methyl-1H-indol-5-yl)amino]nicotinonitrile]: the IC50 was determined as 40 nM.
Then `Cc1ncc(C#N)c(Nc2ccc3[nH]ccc3c2C)c1-c1ccc(OCCNCCN2CCCC2)cc1` [Example 21, 6-methyl-4-[(4-methyl-1H-indol-5-yl)amino]-5-(4-{2-[(2-pyrrolidin-1-ylethyl)amino]ethoxy}phenyl)nicotinonitrile], with 26 nM; and `Cc1ncc(C#N)c(Nc2ccc3[nH]ccc3c2C)c1-c1ccc(OCCN2CCCCC2)cc1` [Example 24, 6-methyl-4-[(4-methyl-1H-indol-5-yl)amino]-5-[4-(2-piperidin-1-ylethoxy)phenyl]nicotinonitrile], with 44 nM; and `Cc1ncc(C#N)c(Nc2ccc3[nH]ccc3c2C)c1-c1ccc(OCCN2CCC(CCO)CC2)cc1` [Example 25, 5-(4-{2-[4-(2-hydroxyethyl)piperidin-1-yl]ethoxy}phenyl)-6-methyl-4-[(4-methyl-1H-indol-5-yl)amino]nicotinonitrile], with 68 nM.
Take `Cc1ncc(C#N)c(Nc2ccc3[nH]ccc3c2C)c1-c1ccc(OCCN2CCC(N3CCCC3)CC2)cc1` [Example 26, 6-methyl-4-[(4-methyl-1H-indol-5-yl)amino]-5-{4-[2-(4-pyrrolidin-1-ylpiperidin-1-yl)ethoxy]phenyl}nicotinonitrile]: the IC50 amounted to 31 nM.
As to `Cc1ncc(C#N)c(Nc2ccc3[nH]ccc3c2C)c1-c1ccc(OCCN2CCC(N3CCCCC3)CC2)cc1` [Example 27, 5-{4-[2-(1,4′-bipiperidin-1′-yl)ethoxy]phenyl}-6-methyl-4-[(4-methyl-1H-indol-5-yl)amino]nicotinonitrile], the IC50 came to 30 nM.
As for `Cc1ncc(C#N)c(Nc2ccc3[nH]ccc3c2C)c1-c1ccc(OCCN2CCC(N3CCOCC3)CC2)cc1` [Example 28, 6-methyl-4-[(4-methyl-1H-indol-5-yl)amino]-5-{4-[2-(4-morpholin-4-ylpiperidin-1-yl)ethoxy]phenyl}nicotinonitrile], the figure is 28 nM; as for `Cc1ncc(C#N)c(Nc2ccc3[nH]ccc3c2C)c1-c1ccc(OCCN2CC(C)NCC2C)cc1` (stereo not drawn) [Example 31, 5-{4-[2-(2,5-dimethylpiperazin-1-yl)ethoxy]phenyl}-6-methyl-4-[(4-methyl-1H-indol-5-yl)amino]nicotinonitrile], 42 nM; as for `Cc1ncc(C#N)c(Nc2ccc3[nH]ccc3c2C)c1-c1ccc(OCCN2CC(C)NC(C)C2)cc1` (stereo not drawn) [Example 32, 5-{4-[2-(3,5-dimethylpiperazin-1-yl)ethoxy]phenyl}-6-methyl-4-[(4-methyl-1H-indol-5-yl)amino]nicotinonitrile], 25 nM.
As for `Cc1ncc(C#N)c(Nc2ccc3[nH]ccc3c2C)c1-c1ccc(OCCN2CCCNCC2)cc1` [Example 34, 5-{4-[2-(1,4-diazepan-1-yl)ethoxy]phenyl}-6-methyl-4-[(4-methyl-1H-indol-5-yl)amino]nicotinonitrile], the figure is 14 nM; as for `Cc1ncc(C#N)c(Nc2ccc3[nH]ccc3c2C)c1-c1ccc(OCCNCc2cccnc2)cc1` [Example 41, 6-methyl-4-[(4-methyl-1H-indol-5-yl)amino]-5-(4-{2-[(pyridin-3-ylmethyl)amino]ethoxy}phenyl)nicotinonitrile], 64 nM.
`Cc1ncc(C#N)c(Nc2ccc3[nH]ccc3c2C)c1-c1ccc(OCCNCc2ccncc2)cc1` [Example 42, 6-methyl-4-[(4-methyl-1H-indol-5-yl)amino]-5-(4-{2-[(pyridin-4-ylmethyl)amino]ethoxy}phenyl)nicotinonitrile]: the IC50 was determined as 41 nM.
Take `COc1ccc(-c2c(C)ncc(C#N)c2Nc2ccc3cc[nH]c3c2)cc1OC` [Example 46, 5-(3,4-dimethoxyphenyl)-4-(1H-indol-6-ylamino)-6-methylnicotinonitrile]: the IC50 is 11900 nM.
`COc1ccc(-c2c(C)ncc(C#N)c2Nc2ccc3[nH]c(C)cc3c2)cc1OC` [Example 48, 5-(3,4-dimethoxyphenyl)-6-methyl-4-[(2-methyl-1H-indol-5-yl)amino]nicotinonitrile]: the IC50 was 556 nM.
For the molecule `Cc1ncc(C#N)c(Nc2ccc3[nH]ccc3c2)c1-c1ccccc1` [Example 50, 4-(1H-indol-5-ylamino)-6-methyl-5-phenylnicotinonitrile], the IC50 is 50 nM.
Turning to `COc1ccc(-c2c(C)ncc(C#N)c2Nc2ccc3[nH]ccc3c2)cc1OC` [Example 51, 5-(3,4-dimethoxyphenyl)-4-(1H-indol-5-ylamino)-6-methylnicotinonitrile], the IC50 was 31 nM.
In the case of `COc1ccccc1-c1c(C)ncc(C#N)c1Nc1ccc2[nH]ccc2c1` [Example 52, 4-(1H-indol-5-ylamino)-5-(2-methoxyphenyl)-6-methylnicotinonitrile], the IC50 was 250 nM.
With `COc1cccc(-c2c(C)ncc(C#N)c2Nc2ccc3[nH]ccc3c2)c1` [Example 53, 4-(1H-indol-5-ylamino)-5-(3-methoxyphenyl)-6-methylnicotinonitrile], the IC50 came out at 34 nM.
Regarding `COc1ccc(-c2c(C)ncc(C#N)c2Nc2ccc3[nH]ccc3c2)cc1` [Example 54, 4-(1H-indol-5-ylamino)-5-(4-methoxyphenyl)-6-methylnicotinonitrile], the IC50 is 41 nM.
Then `Cc1ncc(C#N)c(Nc2ccc3[nH]ccc3c2)c1-c1cc2ccccc2o1` [Example 55, 5-(1-benzofuran-2-yl)-4-(1H-indol-5-ylamino)-6-methylnicotinonitrile], with 26 nM.
As for `Cc1ncc(C#N)c(Nc2ccc3[nH]ccc3c2)c1-c1cc2ccccc2s1` [Example 56, 5-(1-benzothiophen-2-yl)-4-(1H-indol-5-ylamino)-6-methylnicotinonitrile], the figure is 137 nM; as for `Cc1ncc(C#N)c(Nc2ccc3[nH]ccc3c2)c1-c1cccc(CN(C)C)c1` [Example 57, 5-{3-[(dimethylamino)methyl]phenyl}-4-(1H-indol-5-ylamino)-6-methylnicotinonitrile], 87 nM; as for `CCc1ncc(C#N)c(Nc2ccc3[nH]ccc3c2C)c1-c1ccc(OC)c(OC)c1` [Example 61, 5-(3,4-dimethoxyphenyl)-6-ethyl-4-[(4-methyl-1H-indol-5-yl)amino]nicotinonitrile], 191 nM.
For `COc1ccc(-c2c(C)ncc(C#N)c2Nc2cc(Cl)c3[nH]ccc3c2C)cc1OC` [Example 64, 4-[(7-chloro-4-methyl-1H-indol-5-yl)amino]-5-(3,4-dimethoxyphenyl)-6-methylnicotinonitrile], the IC50 is 84 nM.
Then `Cc1ncc(C#N)c(Nc2ccc3[nH]ccc3c2)c1-c1cccs1` [Example 65, 4-(1H-indol-5-ylamino)-6-methyl-5-(2-thienyl)nicotinonitrile], with 80 nM; and `Cc1ncc(C#N)c(Nc2ccc3[nH]ccc3c2C)c1-c1cccc(CN(C)C)c1` [Example 66, 5-{3-[(dimethylamino)methyl]phenyl}-6-methyl-4-[(4-methyl-1H-indol-5-yl)amino]pyridine-3-carbonitrile], with 42 nM.
